Calls of active or inactive are those of the source. The rule behind the calls is not given here.
Assays:
[1] = test system: Panel NCI-60 (60 carcinoma cell lines); assay: Cytotoxicity against human NCI60 cells by SRB assay; format: functional, cell-based
LOX IMVI [2] = assay: Growth of human LOX IMVI cells relative to control
BT-474 [3] = assay: Induction of apoptosis in human BT-474 cells assessed as nuclear shrinkage by measuring bright clue colour at 0.25 to 1 uM incubated for 24 hrs by DAPI staining based fluorescence microscope assay; format: functional, cell-based; settings: dose 0.25-1 µM
BT-474 [4] = assay: Inhibition of colony formation in human BT-474 cells by clonogenic assay; format: functional, cell-based
BT-474 [5] = assay: Induction of ROS production in human BT-474 cells assessed as increase in intracellular ROS level incubated for 24 hrs by DCF-DA staining based assay; format: functional, cell-based; settings: dose 0.25-1 µM
BT-474 [6] = assay: Induction of mitochondrial membrane potential loss in human BT-474 cells assessed as depolarised cells at 1 uM incubated for 24 hrs by […] staining based assay (reference value: 4.18%); format: functional
BT-474 [7] = assay: Induction of mitochondrial membrane potential loss in human BT-474 cells assessed as depolarised cells at 0.25 uM incubated for 24 hrs by […] staining based assay (reference value: 4.18%); format: functional
KM12 [8] = assay: Growth inhibition of human KM12 cells; format: functional
BT-474 [9] = assay: Induction of apoptosis in human BT-474 cells assessed as late apoptotic cells at 1 uM incubated for 24 hrs by annexin-V/FITC-PI staining assay (reference value: 1.83%); format: functional
K562 [10] = assay: Growth of human K562 cells relative to control
HT-29 [11] = assay: Growth inhibition of human HT-29 cells; format: functional
NCI-H460 [12] = assay: Growth inhibition of human NCI-H460 cells; format: functional
BT-474 [13] = assay: Induction of apoptosis in human BT-474 cells assessed as early apoptotic cells at 0.5 uM incubated for 24 hrs by annexin-V/FITC-PI staining assay (reference value: 9.44%); format: functional
MCF7 [14] = assay: Growth of human MCF7 cells relative to control
BT-474 [15] = assay: Induction of apoptosis in human BT-474 cells assessed as cell shrinkage at 0.25 to 1 uM by phase-contrast microscopy; format: functional, cell-based; settings: dose 0.25-1 µM
BT-474 [16] = assay: Induction of apoptosis in human BT-474 cells assessed as viable cells at 0.5 uM incubated for 24 hrs by annexin-V/FITC-PI staining assay (reference value: 88.49%); format: functional; settings: read-out: Activity
HCT-116 [17] = assay: Growth of human HCT-116 cells relative to control
BT-474 [18] = assay: Cytotoxicity against human BT-474 cells assessed as cell growth inhibition by MTT assay; format: functional, cell-based
BT-474 [19] = assay: Induction of apoptosis in human BT-474 cells assessed as fragmented nucleus by measuring bright clue colour at 0.25 to 1 uM incubated for 24 hrs by DAPI staining based fluorescence microscope assay; format: functional, cell-based; settings: dose 0.25-1 µM
MDA-MB-435 [20] = assay: Growth inhibition of human MDA-MB-435 cells; format: functional
BT-474 [21] = assay: Induction of apoptosis in human BT-474 cells assessed as viable cells at 1 uM incubated for 24 hrs by annexin-V/FITC-PI staining assay (reference value: 88.49%); format: functional; settings: read-out: Activity
BT-474 [22] = assay: Induction of apoptosis in human BT-474 cells assessed as necrotic cells at 1 uM incubated for 24 hrs by annexin-V/FITC-PI staining assay (reference value: 0.24%); format: functional
BT-474 [23] = assay: Induction of apoptosis in human BT-474 cells assessed as late apoptotic cells at 0.5 uM incubated for 24 hrs by annexin-V/FITC-PI staining assay (reference value: 1.83%); format: functional
KM12 [24] = assay: Growth of human KM12 cells relative to control
BT-474 [25] = assay: Induction of apoptosis in human BT-474 cells assessed as horseshoe-shaped nuclei by measuring bright clue colour at 0.25 to 1 uM incubated for 24 hrs by DAPI staining based fluorescence microscope assay; format: functional, cell-based; settings: dose 0.25-1 µM
BT-474 [26] = assay: Induction of apoptosis in human BT-474 cells assessed as early apoptotic cells at 1 uM incubated for 24 hrs by annexin-V/FITC-PI staining assay (reference value: 9.44%); format: functional
BT-474 [27] = assay: Induction of mitochondrial membrane potential loss in human BT-474 cells assessed as depolarised cells at 0.5 uM incubated for 24 hrs by […] staining based assay (reference value: 4.18%); format: functional
BT-474 [28] = assay: Induction of apoptosis in human BT-474 cells assessed as reduced number of viable cells at 0.25 to 1 uM by phase-contrast microscopy; format: functional, cell-based; settings: dose 0.25-1 µM
SNB-75 [29] = assay: Growth of human SNB75 cells relative to control
RPMI-8226 [30] = assay: Growth of human RPMI-8226 cells relative to control
BT-474 [31] = assay: Induction of mitochondrial membrane potential loss in human BT-474 cells assessed as polarised cells at 1 uM incubated for 24 hrs by […] staining based assay (reference value: 93.95%); format: functional
SR [32] = assay: Growth inhibition of human SR cells; format: functional
SR [33] = assay: Growth of human SR cells relative to control
K562 [34] = assay: Growth inhibition of human K562 cells; format: functional
BT-474 [35] = assay: Induction of apoptosis in human BT-474 cells assessed as […] at 0.25 to 1 uM by phase-contrast microscopy; format: functional, cell-based; settings: dose 0.25-1 µM
BT-474 [36] = assay: Induction of mitochondrial membrane potential loss in human BT-474 cells assessed as polarised cells at 0.5 uM incubated for 24 hrs by […] staining based assay (reference value: 93.95%); format: functional
NCI-H460 [37] = assay: Growth of human NCI-H460 cells relative to control
MCF7 [38] = assay: Growth inhibition of human MCF7 cells; format: functional
MDA-MB-435 [39] = assay: Growth of human MDA-MB-435 cells relative to control
BT-474 [40] = assay: Induction of apoptosis in human BT-474 cells assessed as necrotic cells at 0.5 uM incubated for 24 hrs by annexin-V/FITC-PI staining assay (reference value: 0.24%); format: functional
LOX IMVI [41] = assay: Growth inhibition of human LOX IMVI cells; format: functional
BT-474 [42] = assay: Induction of apoptosis in human BT-474 cells assessed as cellular morphological changes at 0.25 to 1 uM incubated for 24 hrs by AO/EB staining assay; format: functional, cell-based; settings: dose 0.25-1 µM
BT-474 [43] = assay: Induction of mitochondrial membrane potential loss in human BT-474 cells assessed as polarised cells at 0.25 uM incubated for 24 hrs by […] staining based assay (reference value: 93.95%); format: functional
SNB-75 [44] = assay: Growth inhibition of human SNB75 cells; format: functional
HT-29 [45] = assay: Growth of human HT-29 cells relative to control
HCT-116 [46] = assay: Growth inhibition of human HCT-116 cells; format: functional
BT-474 [47] = assay: Induction of apoptosis in human BT-474 cells assessed as pyknotic and chromatin condensation by measuring bright clue colour at 0.25 to 1 uM incubated for 24 hrs by DAPI staining based fluorescence microscope assay; format: functional, cell-based; settings: dose 0.25-1 µM
RPMI-8226 [48] = assay: Growth inhibition of human RPMI-8226 cells; format: functional
[49] = read-out: LC50 (the source's name)

Clc1ccccc1Oc1ccc(Nc2ncnc3onc(-c4ccccc4)c23)cc1
Activity [1]: Active

c1ccc(COc2ccc(Nc3ncnc4onc(-c5ccccc5)c34)cc2)cc1
Activity [1]: Active

c1ccc(-c2noc3ncnc(Nc4ccc(N5CCOCC5)cc4)c23)cc1
Activity [1]: Active

Fc1cccc(COc2ccc(Nc3ncnc4onc(-c5ccccc5)c34)cc2)c1
growth, % of control (LOX IMVI [2]): 23.07% | Activity (BT-474 [3]): Active | Activity (BT-474 [4]): Dose-Dependent Effect | Activity (BT-474 [5]): Dose-Dependent Effect | Activity (BT-474 [6]): 18.83% | Activity (BT-474 [7]): 5.5% | GI50 (KM12 [8]): 0.08 µM | TGI (KM12 [8]): 14.8 µM | CC50 (KM12 [8]; [49]): > 100 µM | Activity (BT-474 [9]): 7.19% | growth, % of control (K562 [10]): 12.08% | GI50 (HT-29 [11]): 0.053 µM | TGI (HT-29 [11]): 11.6 µM | CC50 (HT-29 [11]; [49]): > 100 µM | GI50 (NCI-H460 [12]): 0.05 µM | TGI (NCI-H460 [12]): 28.4 µM | CC50 (NCI-H460 [12]; [49]): > 100 µM | Activity (BT-474 [13]): 27.1% | growth, % of control (MCF7 [14]): 14.05% | Activity (BT-474 [15]): Active | viability at 0.5 µM (BT-474 [16]): 64.9% | growth, % of control (HCT-116 [17]): 8.15% | IC50 (BT-474 [18]): 0.64 µM | Activity (BT-474 [19]): Active | GI50 (MDA-MB-435 [20]): 0.032 µM | viability at 1 µM (BT-474 [21]): 63.3% | Activity (BT-474 [22]): 1.55% | Activity (BT-474 [23]): 6.9% | growth, % of control (KM12 [24]): 9.57% | Activity (BT-474 [25]): Active | Activity (BT-474 [26]): 27.93% | Activity (BT-474 [27]): 16.12% | Activity (BT-474 [28]): Active | growth, % of control (SNB-75 [29]): -34.93% | growth, % of control (RPMI-8226 [30]): 12.49% | Activity (BT-474 [31]): 75.08% | GI50 (SR [32]): 0.067 µM | TGI (SR [32]): > 100 µM | CC50 (SR [32]; [49]): > 100 µM | growth, % of control (SR [33]): 26.06% | GI50 (K562 [34]): 0.095 µM | TGI (K562 [34]): > 100 µM | CC50 (K562 [34]; [49]): > 100 µM | Activity (BT-474 [35]): Active | Activity (BT-474 [36]): 78.84% | growth, % of control (NCI-H460 [37]): 2.61% | GI50 (MCF7 [38]): 0.037 µM | TGI (MCF7 [38]): > 100 µM | CC50 (MCF7 [38]; [49]): > 100 µM | growth, % of control (MDA-MB-435 [39]): -54.67% | Activity (BT-474 [40]): 1.06% | Activity [1]: Active | GI50 (LOX IMVI [41]): 0.949 µM | TGI (LOX IMVI [41]): > 100 µM | CC50 (LOX IMVI [41]; [49]): > 100 µM | Activity (BT-474 [42]): Active | Activity (BT-474 [43]): 92.79% | GI50 (SNB-75 [44]): 0.026 µM | TGI (SNB-75 [44]): 0.386 µM | CC50 (SNB-75 [44]; [49]): > 100 µM | growth, % of control (HT-29 [45]): 3.86% | GI50 (HCT-116 [46]): 0.058 µM | TGI (HCT-116 [46]): > 100 µM | CC50 (HCT-116 [46]; [49]): > 100 µM | Activity (BT-474 [47]): Active | GI50 (RPMI-8226 [48]): 0.058 µM | TGI (RPMI-8226 [48]): > 100 µM | CC50 (RPMI-8226 [48]; [49]): > 100 µM

Brc1ccc(Oc2ccc(Nc3ncnc4onc(-c5ccccc5)c34)cc2)cc1
Activity [1]: Active

COc1ccc(COc2ccc(Nc3ncnc4onc(-c5ccccc5)c34)cc2)cc1
Activity [1]: Active

c1ccc(-c2noc3ncnc(Nc4ccc(Oc5ccc6ccccc6c5)cc4)c23)cc1
Activity [1]: Active

Clc1ccc(Oc2ccc(Nc3ncnc4onc(-c5ccccc5)c34)cc2)c(Cl)c1
Activity [1]: Active

Brc1ccc(COc2ccc(Nc3ncnc4onc(-c5ccccc5)c34)cc2)cc1
Activity [1]: Active

c1ccc(Oc2ccc(Nc3ncnc4onc(-c5ccccc5)c34)cc2)cc1
Activity [1]: Active

O=C(O)CNc1ncnc2onc(-c3ccccc3)c12
Activity [1]: Active

Clc1ccc(COc2ccc(Nc3ncnc4onc(-c5ccccc5)c34)cc2)cc1
Activity [1]: Active

c1ccc(-c2noc3ncnc(Nc4ccc(Oc5cccc6ccccc56)cc4)c23)cc1
Activity [1]: Active

Fc1ccccc1Nc1ncnc2onc(-c3ccccc3)c12
Activity [1]: Active

Clc1cccc(COc2ccc(Nc3ncnc4onc(-c5ccccc5)c34)cc2)c1
Activity [1]: Active

c1ccc(-c2noc3ncnc(Nc4ccc(Oc5ccccc5-c5ccnc6ccccc56)cc4)c23)cc1
Activity [1]: Active

CCOC(=O)c1ccc(Oc2ccc(Nc3ncnc4onc(-c5ccccc5)c34)cc2)cc1
Activity [1]: Active

c1ccc(Nc2ncnc3onc(-c4ccccc4)c23)cc1
Activity [1]: Active

Clc1cccc(Nc2ncnc3onc(-c4ccccc4)c23)c1
Activity [1]: Active

O=c1cc(Cc2ccc(Oc3ccc(Nc4ncnc5onc(-c6ccccc6)c45)cc3)cc2)c2ccccc2o1
Activity [1]: Active

Cc1ccc(COc2ccc(Nc3ncnc4onc(-c5ccccc5)c34)cc2)cc1
Activity [1]: Active

FC(F)(F)Oc1ccc(Oc2ccc(Nc3ncnc4onc(-c5ccccc5)c34)cc2)cc1
Activity [1]: Active

Fc1ccc(COc2ccc(Nc3ncnc4onc(-c5ccccc5)c34)cc2)cc1
Activity [1]: Active

COc1cccc(COc2ccc(Nc3ncnc4onc(-c5ccccc5)c34)cc2)c1
Activity [1]: Active

Cc1cc(C)cc(Oc2ccc(Nc3ncnc4onc(-c5ccccc5)c34)cc2)c1
Activity [1]: Active

Clc1ccc(COc2ccc(Nc3ncnc4onc(-c5ccccc5)c34)cc2)c(Cl)c1
Activity [1]: Active

COc1ccc(Nc2ncnc3onc(-c4ccccc4)c23)cc1
Activity [1]: Active

Fc1ccc(Oc2ccc(Nc3ncnc4onc(-c5ccccc5)c34)cc2)cc1
Activity [1]: Active
